pIC50: −log10 of the molar value.
System: MDA-MB-231 multicell spheroids, viability
Test: Anticancer human tumor MDA-MB-231 cell line growth inhibition [PI3K];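 also: spheroids exposed to agents for seven days before reading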;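 as to viability, T/C: percent of vehicle control luminescence with DMSO treated spheroids as 100%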
Conditions: for pIC50: curve of first compound; for viability, T/C: stronger effect = lower value; active = viability on the fitted dose curve at most 10% of control; inactive = the rest
Text: Combinatorial screen of targeted agents with the PI3K inhibitors inavolisib, alpelisib, duvelisib, and copanlisib in multi-cell type tumor spheroids
A high-throughput screen of multi-cell type tumor spheroids was designed to identify active combinations of targeted small molecules and PI3K pathway inhibitors. Complex spheroids include a stromal component modeled by human endothelial cells (HUVEC) and fibroblasts modeled by human mesenchymal stem cells (MSCs). The concentration ranges selected for each drug and investigational agent were based upon clinically achievable concentrations if the clinical Cmax of the agent was known.
Compounds. The drugs and investigational agents: inavolisib (NSC800729), alpelisib (NSC765974), duvelisib (NSC772469), copanlisib (NSC816437), ipatasertib (NSC767898), afuresertib (NSC778305), talazoparib (NSC767125), sapanisertib (NSC764658), selumetinib (NSC741078), tovorafenib (DAY101, NSC766906), vemurafenib (NSC761431), ravoxertinib (NSC781343), sotorasib (NSC818433), MRTX1133 (NSC 836407), abemaciclib (NSC 768073), palbociclib (NSC758247), venetoclax (NSC 766270), SY5609 (NSC837396), enzalutamide (NSC755605), and darolutamide (NSC825331), were obtained from the National Cancer Institute (NCI) Developmental Therapeutics Program Chemical Repository. The FDA-approved anticancer drug set is available from the NCI Developmental Therapeutics Program. […] The stock solutions were prepared in dimethyl sulfoxide (DMSO, Sigma-Aldrich, St. Louis, MO, cat. D2650) at 800-fold the tested concentration and stored at -70 degrees C prior to their use. All drugs and investigational agents were tested over a range starting from a high concentration at or near the clinical Cmax and decreasing in half-log increments. If the clinical Cmax for an agent had not been determined, the highest concentration tested was 10 microM.
Cell Culture. All cells were maintained in an incubator at 37 degrees C and 5% CO2 with 95% humidity. The PDC lines were cultured according to standard operating procedures established by the NCI PDMR (https://pdmr.cancer.gov/sops/default.htm). All PDCs were thawed and cultured in Matrigel-coated flasks prepared with a working solution of 1X Ham's F-12 nutrient mix, without supplementation (Invitrogen, Waltham, MA, cat. 11765054), 100 U/mL penicillin-streptomycin (Invitrogen, cat. 15140122), and 2.5% Matrigel (Corning Inc., Corning, NY, cat. 354248) for the first three passages. The 354836-022-R-J1-PDC, 475296-252-R-J1-PDC, and 997726-040-R-J2-PDC lines were cultured in 6A media, which includes advanced DMEM/F-12 (Thermo Fisher Scientific, cat. 12634028), 10 mM HEPES (Thermo Fisher Scientific, cat. 15630080), 1X GlutaMAX supplement (Thermo Fisher Scientific, cat. 35050061), 0.1 mg/mL primocin (InvivoGen, San Diego, CA, cat. ant-pm-2), 10% defined fetal bovine serum, heat inactivated (HyClone Laboratories Inc., Logan, UT, cat. SH30070.03HI), 50% L-WRN conditioned media (ATCC, cat. CRL-3276), 1.25 mM N-Acetyl-L-cysteine (Sigma-Aldrich, cat. A9165), 10 mM nicotinamide (Sigma-Aldrich, cat. N0636), 1X B-27 supplement (Thermo Fisher Scientific, cat. 17504044), 1X N-2 supplement (Thermo Fisher Scientific, cat. 17502048), and 10 microM Y-27632 dihydrochloride (Tocris Bioscience, Bristol, United Kingdom, cat. 1254). The 624824-186-R-J2-PDC line was cultured in 6C/Colon 1B media, which includes all 6A media components plus 50 ng/mL human EGF recombinant protein (Thermo Fisher Scientific, cat. PHG0311). […]

[1] = second compound 0.00316 µM, first compound 0.0316 µM
[2] = second compound 0.00316 µM, first compound 0.1 µM
[3] = second compound 0.00316 µM, first compound 0.316 µM
[4] = second compound 0.00316 µM, first compound 1 µM
[5] = second compound 0.00316 µM, first compound 3.16 µM
[6] = second compound 0.00316 µM, first compound 10 µM
[7] = second compound 0.01 µM, first compound 0.0316 µM
[8] = second compound 0.01 µM, first compound 0.1 µM
[9] = second compound 0.01 µM, first compound 0.316 µM
[10] = second compound 0.01 µM, first compound 1 µM
[11] = second compound 0.01 µM, first compound 3.16 µM
[12] = second compound 0.01 µM, first compound 10 µM
[13] = second compound 0.0316 µM, first compound 0.0316 µM
[14] = second compound 0.0316 µM, first compound 0.1 µM
[15] = second compound 0.0316 µM, first compound 0.316 µM
[16] = second compound 0.0316 µM, first compound 1 µM
[17] = second compound 0.0316 µM, first compound 3.16 µM
[18] = second compound 0.0316 µM, first compound 10 µM
[19] = second compound 0.1 µM, first compound 0.0316 µM
[20] = second compound 0.1 µM, first compound 0.1 µM
[21] = second compound 0.1 µM, first compound 0.316 µM
[22] = second compound 0.1 µM, first compound 1 µM
[23] = second compound 0.1 µM, first compound 3.16 µM
[24] = second compound 0.1 µM, first compound 10 µM
[25] = second compound 0.316 µM, first compound 0.0316 µM
[26] = second compound 0.316 µM, first compound 0.1 µM
[27] = second compound 0.316 µM, first compound 0.316 µM
[28] = second compound 0.316 µM, first compound 1 µM
[29] = second compound 0.316 µM, first compound 3.16 µM
[30] = second compound 0.316 µM, first compound 10 µM
[31] = second compound 1 µM, first compound 0.0316 µM
[32] = second compound 1 µM, first compound 0.1 µM
[33] = second compound 1 µM, first compound 0.316 µM
[34] = second compound 1 µM, first compound 1 µM
[35] = second compound 1 µM, first compound 3.16 µM
[36] = second compound 1 µM, first compound 10 µM

CC1(C)CCC(CN2CCN(c3ccc(C(=O)NS(=O)(=O)c4ccc(NCC5CCOCC5)c([N+](=O)[O-])c4)c(Oc4cnc5[nH]ccc5c4)c3)CC2)=C(c2ccc(Cl)cc2)C1 + CC(Nc1ccc2c(c1)OCCn1cc(N3C(=O)OCC3C(F)F)nc1-2)C(N)=O
5.36: pIC50 (second compound 1 µM)
5.16: pIC50 (second compound 0.00316 µM)
5.33: pIC50 (second compound 0.316 µM)
5.26: pIC50 (second compound 0.1 µM)
5.15: pIC50 (second compound 0.01 µM)
inactive: viability, T/C [1] 95.8% | viability, T/C [2] 92.2% | viability, T/C [3] 104% | viability, T/C [4] 111% | viability, T/C [5] 105% | viability, T/C [6] 25.5% | viability, T/C [7] 94.1% | viability, T/C [8] 99.1% | viability, T/C [9] 94.9% | viability, T/C [10] 96.4% | viability, T/C [11] 92.2% | viability, T/C [12] 31.8% | viability, T/C [13] 83.8% | viability, T/C [14] 77.5% | viability, T/C [15] 79.3% | viability, T/C [16] 85.8% | viability, T/C [17] 86.6% | viability, T/C [18] 29.5% | viability, T/C [19] 77.2% | viability, T/C [20] 69.1% | viability, T/C [21] 71.4% | viability, T/C [22] 69.6% | viability, T/C [23] 69.8% | viability, T/C [24] 28.2% | viability, T/C [25] 64% | viability, T/C [26] 64.6% | viability, T/C [27] 61.1% | viability, T/C [28] 66.4% | viability, T/C [29] 70.6% | viability, T/C [30] 21.4% | viability, T/C [31] 64.9% | viability, T/C [32] 60.2% | viability, T/C [33] 60.8% | viability, T/C [34] 60.2% | viability, T/C [35] 65.5% | viability, T/C [36] 18.3%
5.19: pIC50 (second compound 0.0316 µM)

C[C@@H](NC(=O)c1ncnc(N)c1Cl)c1ncc(C(=O)Nc2cc(C(F)(F)F)c(Cl)cn2)s1 + CC(Nc1ccc2c(c1)OCCn1cc(N3C(=O)OCC3C(F)F)nc1-2)C(N)=O
6.20: pIC50 (second compound 0.316 µM)
5.87: pIC50 (second compound 0.1 µM)
< 5.00: pIC50 (second compound 0.00316 µM) | pIC50 (second compound 0.01 µM)
inactive: viability, T/C [1] 119% | viability, T/C [2] 93% | viability, T/C [3] 86.7% | viability, T/C [4] 86.9% | viability, T/C [5] 73.9% | viability, T/C [6] 50.6% | viability, T/C [7] 111% | viability, T/C [8] 94.2% | viability, T/C [9] 81.7% | viability, T/C [10] 72.1% | viability, T/C [11] 68.2% | viability, T/C [12] 49% | viability, T/C [13] 91.3% | viability, T/C [14] 75.1% | viability, T/C [15] 66.1% | viability, T/C [16] 62.7% | viability, T/C [17] 52.3% | viability, T/C [18] 40.8% | viability, T/C [19] 83% | viability, T/C [20] 66.4% | viability, T/C [21] 58.8% | viability, T/C [22] 54.1% | viability, T/C [23] 48.3% | viability, T/C [24] 32.6% | viability, T/C [25] 77.8% | viability, T/C [26] 66.3% | viability, T/C [27] 54.8% | viability, T/C [28] 45.6% | viability, T/C [29] 41% | viability, T/C [30] 33% | viability, T/C [31] 67.4% | viability, T/C [32] 55.4% | viability, T/C [33] 49.5% | viability, T/C [34] 44.8% | viability, T/C [35] 38.4% | viability, T/C [36] 28.8%
6.47: pIC50 (second compound 1 µM)
5.46: pIC50 (second compound 0.0316 µM)
